What all share (format): cell-based
For test [1], the target named is T1, IKCa channel (KCa3.1) (Homo sapiens, UniProt O15554).
T1 construct: gene KCNN4; native channel in Jurkat T-lymphocytes
Nature of the test: cell-attached single-channel recording; […] DCEBIO raised open probability in presence of MDZ.

For test [2], the target named is T2, KV1.3 (delayed-rectifier K+ channel, IK(DR)) (Homo sapiens, UniProt P22001).
T2 construct: gene KCNA3; native channel in Jurkat T-lymphocytes
Nature of the test: whole-cell patch clamp of native IK(DR), concentration-response (kinetic KD […]).

In test [3] the target is T1, IKCa channel (KCa3.1). Description: cell-attached single-channel recording; open probability decreased at […]. Conditions: read-out: % decrease of open probability at 30 μM.

Here are results for two molecules from PMC8267671, “Midazolam’s Effects on Delayed-Rectifier K^+ Current and Intermediate-Conductance Ca^2+-Activated K^+ Channel in Jurkat T-lymphocytes” (International Journal of Molecular Sciences, 2021).

T1 sequence (O15554 whole entry): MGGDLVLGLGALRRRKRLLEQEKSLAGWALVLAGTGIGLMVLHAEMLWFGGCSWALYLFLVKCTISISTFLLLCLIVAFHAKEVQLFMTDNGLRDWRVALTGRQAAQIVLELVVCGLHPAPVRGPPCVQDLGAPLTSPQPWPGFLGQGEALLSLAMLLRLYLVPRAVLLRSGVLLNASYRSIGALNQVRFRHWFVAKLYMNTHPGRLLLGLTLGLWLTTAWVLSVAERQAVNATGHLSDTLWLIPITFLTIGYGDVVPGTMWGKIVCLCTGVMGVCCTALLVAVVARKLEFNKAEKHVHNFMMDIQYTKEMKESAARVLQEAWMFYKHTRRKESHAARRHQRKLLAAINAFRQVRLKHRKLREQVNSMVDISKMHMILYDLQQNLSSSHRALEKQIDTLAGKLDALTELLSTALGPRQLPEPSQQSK
T2 sequence (P22001 whole entry): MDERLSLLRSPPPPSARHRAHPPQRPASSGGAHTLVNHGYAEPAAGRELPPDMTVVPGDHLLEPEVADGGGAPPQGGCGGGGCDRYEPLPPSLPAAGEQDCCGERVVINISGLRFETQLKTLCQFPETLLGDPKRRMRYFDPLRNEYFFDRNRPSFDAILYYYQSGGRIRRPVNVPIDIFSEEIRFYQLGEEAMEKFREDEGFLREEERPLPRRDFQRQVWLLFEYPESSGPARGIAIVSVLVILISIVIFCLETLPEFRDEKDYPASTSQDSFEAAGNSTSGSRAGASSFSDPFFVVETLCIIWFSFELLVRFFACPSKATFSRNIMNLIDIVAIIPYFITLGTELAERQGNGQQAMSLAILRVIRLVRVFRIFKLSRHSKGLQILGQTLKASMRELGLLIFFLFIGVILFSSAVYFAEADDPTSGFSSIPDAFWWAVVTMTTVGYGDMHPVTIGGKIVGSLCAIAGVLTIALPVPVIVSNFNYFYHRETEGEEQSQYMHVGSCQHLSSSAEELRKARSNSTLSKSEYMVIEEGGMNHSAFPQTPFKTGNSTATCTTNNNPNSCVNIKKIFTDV

As to `CCn1c(=O)[nH]c2cc(Cl)c(Cl)cc21` [DCEBIO, 5,6-dichloro-1-ethyl-1,3-dihydro-2H-benzimidazol-2-one], the “cell-attached single-channel recording; 3 μM DCEBIO raised open probability in p” value at IKCa channel (KCa3.1) [1] is listed as 0.121 ± 0.006 open probability (with 3 µM DCEBIO plus 30 µM MDZ).

Take `Cc1ncc2n1-c1ccc(Cl)cc1C(c1ccccc1F)=NC2` [MDZ, 8-chloro-6-(2-fluorophenyl)-1-methyl-4H-imidazo [1,5-a][1,4] benzodiazepine]: inhibition in test [2] was half-maximal at 5.87 µM (IC50). Further, the inhibition at 30 µM on IKCa channel (KCa3.1) [3] stood at 85.7 ± 2.5%.
